Active and inactive are the calls of the source. The rule behind the calls is not given here.
Key:
C2C12 = experiment: Cytotoxicity against mouse C2C12 cells assessed as reduction in cell viability at 10 uM after 3 days by MTT assay; assay type: cell-based; settings: c2c12, 72 h
LNCaP [1] = experiment: Cytotoxicity against human LNCAP cells assessed as reduction in cell viability at 10 uM after 3 days by MTT assay in presence of DHT and E2; assay type: functional, cell-based
LNCaP [2] = experiment: Cytotoxicity against human LNCAP cells assessed as reduction in cell viability after 4 days by MTT assay in presence of DHT and E2; assay type: functional, cell-based; settings: 96 h
LNCaP [3] = experiment: Cytotoxicity against human LNCAP cells assessed as growth inhibition at 10 uM after 5 days by MTT assay relative to control; assay type: functional
[4] = molecular target: T1, Androgen receptor (Mus musculus) (UniProt P19091); experiment: Antagonist activity at mouse androgen receptor expressed in mouse C2C12 cells at 5 uM pretreated for 1 day measured 36 hrs post transfection by luciferase reporter gene assay in presence of DHT; assay type: cell-based
T1 sequence (whole entry): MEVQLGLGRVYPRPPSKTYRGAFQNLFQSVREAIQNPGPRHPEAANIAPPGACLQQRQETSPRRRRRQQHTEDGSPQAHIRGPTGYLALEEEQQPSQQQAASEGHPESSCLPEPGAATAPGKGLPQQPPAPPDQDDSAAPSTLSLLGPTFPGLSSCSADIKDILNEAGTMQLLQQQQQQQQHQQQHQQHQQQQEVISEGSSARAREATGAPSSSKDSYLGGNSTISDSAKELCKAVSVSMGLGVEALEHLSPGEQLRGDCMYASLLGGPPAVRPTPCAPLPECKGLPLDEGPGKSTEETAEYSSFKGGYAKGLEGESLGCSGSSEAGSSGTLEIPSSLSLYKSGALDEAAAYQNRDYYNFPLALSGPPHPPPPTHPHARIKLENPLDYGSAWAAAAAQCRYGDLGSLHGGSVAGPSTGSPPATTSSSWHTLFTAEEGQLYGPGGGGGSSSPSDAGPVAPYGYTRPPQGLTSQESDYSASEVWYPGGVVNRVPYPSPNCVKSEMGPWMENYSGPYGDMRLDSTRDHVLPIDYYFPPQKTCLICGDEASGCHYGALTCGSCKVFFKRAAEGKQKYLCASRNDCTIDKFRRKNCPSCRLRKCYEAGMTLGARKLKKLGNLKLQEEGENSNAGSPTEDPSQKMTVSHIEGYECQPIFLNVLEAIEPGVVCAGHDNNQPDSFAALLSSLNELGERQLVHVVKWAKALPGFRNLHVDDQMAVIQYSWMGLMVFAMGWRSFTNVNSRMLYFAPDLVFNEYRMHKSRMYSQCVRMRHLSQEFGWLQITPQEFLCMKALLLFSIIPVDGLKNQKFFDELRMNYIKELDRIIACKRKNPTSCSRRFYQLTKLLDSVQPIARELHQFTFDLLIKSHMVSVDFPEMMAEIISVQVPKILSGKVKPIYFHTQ

[5] = molecular target: T2, Estrogen receptor (Homo sapiens) (UniProt P03372); experiment: Antagonist activity at human estrogen receptor expressed in mouse C2C12 cells at 5 uM pretreated for 1 day measured 36 hrs post transfection by luciferase reporter gene assay in presence of ER agonist estradiol; assay type: cell-based
T2 sequence (whole entry): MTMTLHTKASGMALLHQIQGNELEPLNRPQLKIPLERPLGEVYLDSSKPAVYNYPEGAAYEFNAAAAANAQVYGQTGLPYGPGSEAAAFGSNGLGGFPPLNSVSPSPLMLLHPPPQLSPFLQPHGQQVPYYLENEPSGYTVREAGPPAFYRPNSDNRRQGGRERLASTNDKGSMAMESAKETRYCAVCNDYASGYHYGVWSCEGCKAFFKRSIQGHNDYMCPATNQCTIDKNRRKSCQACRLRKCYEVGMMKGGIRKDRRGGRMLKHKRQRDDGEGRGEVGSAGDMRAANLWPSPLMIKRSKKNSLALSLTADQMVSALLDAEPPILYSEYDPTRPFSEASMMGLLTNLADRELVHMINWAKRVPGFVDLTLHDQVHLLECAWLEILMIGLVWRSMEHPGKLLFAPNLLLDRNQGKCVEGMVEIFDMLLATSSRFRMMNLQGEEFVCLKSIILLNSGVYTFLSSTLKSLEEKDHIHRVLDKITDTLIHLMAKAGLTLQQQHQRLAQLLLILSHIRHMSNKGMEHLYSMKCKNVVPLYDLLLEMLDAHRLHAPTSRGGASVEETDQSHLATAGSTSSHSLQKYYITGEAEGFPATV

[6] = molecular target: T3, Glucocorticoid receptor (Homo sapiens) (UniProt P04150); experiment: Antagonist activity at glucocorticoid receptor (unknown origin) expressed in mouse C2C12 cells at 5 uM pretreated for 1 day measured 36 hrs post transfection by luciferase reporter gene assay in presence of GR agonist […]; assay type: cell-based
T3 sequence (whole entry): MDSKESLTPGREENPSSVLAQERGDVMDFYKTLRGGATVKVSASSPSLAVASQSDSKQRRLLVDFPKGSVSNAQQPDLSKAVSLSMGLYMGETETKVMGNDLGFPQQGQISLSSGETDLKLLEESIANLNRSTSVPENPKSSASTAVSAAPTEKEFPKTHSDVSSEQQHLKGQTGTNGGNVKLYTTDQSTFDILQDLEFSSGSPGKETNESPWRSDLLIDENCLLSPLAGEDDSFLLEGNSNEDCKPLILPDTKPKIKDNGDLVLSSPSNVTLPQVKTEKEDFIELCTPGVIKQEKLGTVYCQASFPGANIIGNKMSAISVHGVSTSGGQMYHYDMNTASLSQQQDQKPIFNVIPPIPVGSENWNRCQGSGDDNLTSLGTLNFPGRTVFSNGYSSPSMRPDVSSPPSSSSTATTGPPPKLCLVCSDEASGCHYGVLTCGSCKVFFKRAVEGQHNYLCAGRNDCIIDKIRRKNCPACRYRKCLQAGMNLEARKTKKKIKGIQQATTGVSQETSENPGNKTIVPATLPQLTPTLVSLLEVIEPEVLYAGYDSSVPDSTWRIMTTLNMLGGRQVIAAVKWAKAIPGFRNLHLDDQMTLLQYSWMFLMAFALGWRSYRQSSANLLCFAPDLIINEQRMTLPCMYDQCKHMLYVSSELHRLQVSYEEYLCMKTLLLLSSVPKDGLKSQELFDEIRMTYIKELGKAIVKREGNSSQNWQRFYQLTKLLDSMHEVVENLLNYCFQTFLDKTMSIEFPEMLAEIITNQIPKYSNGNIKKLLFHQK

Compound: Cc1cccc(NC(=O)c2ccc(N3CCc4cc(O)ccc4C3)nc2)n1
- Activity (C2C12): Non-toxic
- Activity (LNCaP [1]): Active
- IC50 (LNCaP [2]): 1.25 µM
- growth inhibition (GI) (LNCaP [3]): Active
- inhibition [4]: Active
- inhibition [5]: Active
- inhibition [6]: inactive

Compound: COc1cccc(NC(=O)c2cnc(N3CCc4ccccc4C3)nc2)c1
- Activity (C2C12): Non-toxic
- Activity (LNCaP [1]): Active
- IC50 (LNCaP [2]): 0.58 µM
- inhibition [4]: Active
- inhibition [6]: inactive

Compound: Cc1cccc(NC(=O)c2ccc(N3CCc4ccccc4C3)nc2)n1
- IC50 (LNCaP [2]): 4.46 µM

Compound: CCCOc1ccc2c(c1)CCN(c1ccc(C(=O)Nc3cccc(C)n3)cn1)C2
- Activity (C2C12): Non-toxic
- Activity (LNCaP [1]): Active
- IC50 (LNCaP [2]): 1.01 µM
- growth inhibition (GI) (LNCaP [3]): Active
- inhibition [4]: Active
- inhibition [6]: inactive

Compound: CCCCOc1ccc2c(c1)CCN(c1ccc(C(=O)Nc3cccc(C)n3)cn1)C2
- Activity (C2C12): Non-toxic
- Activity (LNCaP [1]): Active
- IC50 (LNCaP [2]): 0.41 µM
- growth inhibition (GI) (LNCaP [3]): Active
- inhibition [4]: Active
- inhibition [6]: inactive

Compound: COc1ccc2c(c1)CCN(c1cnc(C(=O)Nc3cccc(C)n3)cn1)C2
- Activity (C2C12): Non-toxic
- Activity (LNCaP [1]): Active
- IC50 (LNCaP [2]): 0.49 µM
- growth inhibition (GI) (LNCaP [3]): Active
- inhibition [4]: Active
- inhibition [6]: inactive

Compound: Cc1cccc(NC(=O)c2ccc(N3CCc4cc(OCCCc5ccccc5)ccc4C3)nc2)n1
- Activity (C2C12): Non-toxic
- Activity (LNCaP [1]): Active
- IC50 (LNCaP [2]): 0.35 µM
- inhibition of growth at 10 µM (LNCaP [3]; 120 h, read-out: GI): 80%
- inhibition [4]: Active
- inhibition [6]: inactive

Compound: CC(O)(CS(=O)(=O)c1ccc(F)cc1)C(=O)Nc1ccc(C#N)c(C(F)(F)F)c1 (stereo not drawn) [BICALUTAMIDE]
- IC50 (LNCaP [2]): 2.38 µM

From ChEMBL document CHEMBL3745625, “Design and synthesis of novel androgen receptor antagonists via molecular modeling” (Bioorg Med Chem, 2016)
